{"source": "patent US20040039022A1", "about": "“NMDA receptor agonist pharmaceutical compositions” (Pfizer Inc., priority 2000, published 2004)", "format_in_all_cases": "physicochemical", "key": {"[1]": {"assay": "pH of buffered 10 mgA/ml formulations of the Compound at 70° C.", "source_text": "Table 2 exemplifies the use of various buffers to stabilize the pH of formulations containing 10 mgA/ml of the Compound. [table]"}, "[2]": {"assay": "Maximum solubility of the Compound", "details": "at 5° C.", "description": "A preferred presentation of the composition aspects of the invention comprises the Compound at a concentration of 10 mgA/mL. This concentration is near the maximum solubility of the Compound (about 12 mgA/mL at 5° C.). The preferred solution of the composition is 10 mM lactate buffer. However, those skilled in the art will appreciate that buffer solutions of other anions may be used, including, but not limited to, buffer solutions of the anions acetate, citrate, tartrate and formate."}, "[3]": {"assay": "pH shift of aqueous formulations (water only; terminal sterilization of lactate buffered formulation)", "source_text": "Aqueous solutions of the Compound are susceptible to pH shift. […] When the Compound is formulated with only water, the pH of the formulation increases above 5. This pH shift results in conditions favorable to the oxidative degradation reaction, thus accelerating the degradation of the aqueous formulation. The increase in pH also decreases the solubility of the compound, thereby increasing the possibility of precipitation out of solution. Vials are preferably sterilized by terminal sterilization methods employing an autoclave. Preferably, sterilization is for 8 minutes at 121° C. Sterilization may cause a slight shift of pH. In the lactate buffered formulation, pH shifted slightly down. In order to achieve a mid-point in the preferred pH range, the initial pH is preferably set to 4.5. The terminal sterilization cycle reduces the pH to about 4.2. The pH of the initial formulation is set at pH 4.5 to accommodate the slight pH down-shifting upon terminal sterilization. […] Sodium hydroxide and hydrochloric acid are used as needed to adjust the solution to the desired pH."}}, "data": [{"smiles": "C[C@@H]([C@@H](O)c1ccc(O)cc1)N1CCC(O)(c2ccccc2)CC1", "note": "[Compound, (1S,2S)-1-(4-Hydroxyphenyl)-2-(4-hydroxy4-phenylpiperidin-1-yl)-1-propanol]", "values": [{"measurement": "pH at 70° C.", "setting": "[1]; 3 mM lactate, 2 days", "result": 4.21}, {"measurement": "pH at 70° C.", "setting": "[1]; 3 mM lactate, 7 days", "result": 4.20}, {"measurement": "pH at 70° C.", "setting": "[1]; 3 mM lactate, 21 days", "result": 4.14}, {"measurement": "pH at 70° C.", "setting": "[1]; 3 mM lactate, Initial (post-TS)", "result": 4.24}, {"measurement": "pH at 70° C.", "setting": "[1]; 10 mM acetate, 4 days", "result": 4.14}, {"measurement": "pH at 70° C.", "setting": "[1]; 10 mM acetate, 7 days", "result": 4.14}, {"measurement": "pH at 70° C.", "setting": "[1]; 10 mM acetate, 21 days", "result": 4.17}, {"measurement": "pH at 70° C.", "setting": "[1]; 10 mM acetate, Initial (post-TS)", "result": 4.16}, {"measurement": "pH at 70° C.", "setting": "[1]; 10 mM benzoate, 4 days", "result": 4.16}, {"measurement": "pH at 70° C.", "setting": "[1]; 10 mM benzoate, 7 days", "result": 4.20}, {"measurement": "pH at 70° C.", "setting": "[1]; 10 mM benzoate, Initial (post-TS)", "result": 4.21}, {"measurement": "pH at 70° C.", "setting": "[1]; 10 mM citrate, 2 days", "result": 4.16}, {"measurement": "pH at 70° C.", "setting": "[1]; 10 mM citrate, 7 days", "result": 4.17}, {"measurement": "pH at 70° C.", "setting": "[1]; 10 mM citrate, 21 days", "result": 4.11}, {"measurement": "pH at 70° C.", "setting": "[1]; 10 mM citrate, Initial (post-TS)", "result": 4.16}, {"measurement": "pH at 70° C.", "setting": "[1]; 10 mM formate, 2 days", "result": 4.18}, {"measurement": "pH at 70° C.", "setting": "[1]; 10 mM formate, 7 days", "result": 4.16}, {"measurement": "pH at 70° C.", "setting": "[1]; 10 mM formate, 21 days", "result": 4.13}, {"measurement": "pH at 70° C.", "setting": "[1]; 10 mM formate, Initial (post-TS)", "result": 4.17}, {"measurement": "pH at 70° C.", "setting": "[1]; 10 mM tartrate, 2 days", "result": 4.17}, {"measurement": "pH at 70° C.", "setting": "[1]; 10 mM tartrate, 7 days", "result": 4.17}, {"measurement": "pH at 70° C.", "setting": "[1]; 10 mM tartrate, 21 days", "result": 4.07}, {"measurement": "pH at 70° C.", "setting": "[1]; 10 mM tartrate, Initial (post-TS)", "result": 4.15}, {"measurement": "maximum solubility", "setting": "[2]", "result": "about 12 mgA/mL"}, {"measurement": "pH of the formulation", "setting": "[3]; Compound formulated with only water", "result": "above 5"}, {"measurement": "pH after terminal sterilization cycle", "setting": "[3]; lactate buffered formulation, initial pH 4.5, autoclave 8 minutes at 121° C.", "result": "about 4.2"}]}]}
